Experimental data as given in ChEMBL document CHEMBL5614419, “Discovery of novel BCL6-Targeting PROTACs with effective antitumor activities against DLBCL in vitro and in vivo” (Eur J Med Chem, 2024).
Active and inactive are the calls of the source. No cut-off for these calls is given here.

Columns and labels:
[1] = target: T1, Protein cereblon/B-cell lymphoma 6 protein (Homo sapiens, UniProt Q96SW2+P41182); test: PROTAC activity at CRBN/BCL6 in BCL6-dependent human SU-DHL-4 cells assessed as induction of BCL6 degradation by measuring degradation rate at 10 uM incubated for 48 hrs by Western blot analysis relative to control; assay type: cell-based
T1 sequence (Q96SW2 whole entry, looked up, other chains not shown): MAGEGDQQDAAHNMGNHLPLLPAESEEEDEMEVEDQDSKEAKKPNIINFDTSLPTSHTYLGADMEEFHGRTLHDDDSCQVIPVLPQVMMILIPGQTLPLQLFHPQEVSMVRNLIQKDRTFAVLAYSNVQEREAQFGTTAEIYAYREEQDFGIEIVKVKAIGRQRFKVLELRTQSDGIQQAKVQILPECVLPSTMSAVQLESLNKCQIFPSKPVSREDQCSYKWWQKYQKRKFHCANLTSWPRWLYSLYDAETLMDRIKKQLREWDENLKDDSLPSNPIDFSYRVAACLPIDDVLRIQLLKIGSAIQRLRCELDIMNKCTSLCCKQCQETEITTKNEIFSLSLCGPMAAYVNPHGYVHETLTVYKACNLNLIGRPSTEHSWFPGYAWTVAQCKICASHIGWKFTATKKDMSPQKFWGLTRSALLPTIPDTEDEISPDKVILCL

[2] = target: T1, Protein cereblon/B-cell lymphoma 6 protein; test: PROTAC activity at CRBN/BCL6 in BCL6-dependent human SU-DHL-4 cells assessed as induction of BCL6 degradation by measuring degradation rate at 1 uM incubated for 48 hrs by Western blot analysis relative to control; assay type: cell-based
[3] = system: SUD4; test: Antiproliferative activity against BCL6-dependent human SU-DHL-4 cells assessed as inhibition of cell growth at 1 uM measured after 6 days by MTT assay relative to control; assay type: functional; conditions: SU-DHL-4, 144 h, time 6 day
[4] = system: SUD4; test: Antiproliferative activity against BCL6-dependent human SU-DHL-4 cells assessed as inhibition of cell growth at 10 uM measured after 6 days by MTT assay relative to control; assay type: functional; conditions: SU-DHL-4, 144 h, time 6 day
[5] = target: T1, Protein cereblon/B-cell lymphoma 6 protein; test: PROTAC activity at CRBN/BCL6 in human DOHH-2 cells assessed as induction of BCL6 degradation incubated for 48 hrs by Western blot analysis; assay type: cell-based
[6] = system: OCI-Ly1; test: Antiproliferative activity against BCL6-dependent human OCI-Ly1 cells assessed as inhibition in cell growth measured after 6 days by MTT assay; conditions: OCI-Ly1, 144 h
[7] = Cytotoxicity against human WI-38 VA13 cells assessed as inhibition in cell growth measured after 6 days by MTT assay; assay type: toxicity, cell-based; conditions: WI-38 VA13 cells
[8] = system: SU-DHL-6; test: Antiproliferative activity against BCL6-dependent human SU-DHL-6 cells assessed as inhibition in cell growth measured after 6 days by MTT assay; conditions: SU-DHL-6, 144 h
[9] = system: SUD4; test: Antiproliferative activity against BCL6-dependent human SU-DHL-4 cells assessed as inhibition in cell growth measured after 6 days by MTT assay; conditions: SU-DHL-4, 144 h
[10] = Cytotoxicity against HEK293T cells assessed as inhibition in cell growth measured after 6 days by MTT assay; assay type: toxicity, cell-based, HEK-293T; conditions: human, HEK293T cells
[11] = target: T1, Protein cereblon/B-cell lymphoma 6 protein; test: PROTAC activity at CRBN/BCL6 in human SU-DHL-4 cells assessed as induction of BCL6 degradation incubated for 48 hrs by Western blot analysis; assay type: cell-based
[12] = target: T1, Protein cereblon/B-cell lymphoma 6 protein; test: PROTAC activity at CRBN/BCL6 in human DOHH-2 cells assessed as induction of BCL6 degradation by measuring maximal efficacy incubated for 48 hrs by Western blot analysis relative to control; assay type: cell-based
[13] = target: T1, Protein cereblon/B-cell lymphoma 6 protein; test: PROTAC activity at CRBN/BCL6 in human SU-DHL-4 cells assessed as induction of BCL6 degradation by measuring maximal efficacy incubated for 48 hrs by Western blot analysis relative to control; assay type: cell-based
[14] = system: DOHH-2; test: Antiproliferative activity against BCL6-dependent human DOHH-2 cells assessed as inhibition in cell growth measured after 6 days by MTS assay; conditions: DOHH-2, 144 h
[15] = target: B-cell lymphoma 6 protein (Homo sapiens, UniProt P41182); test: Binding affinity to fluorescent labeled recombinant BCL-6 BTB domain (unknown origin) assessed as dissociation constant incubated for 10 mins by MST analysis
[16] = system: SUD4; test: Upregulation of p21 protein level in human SU-DHL-4 cells at 5 uM preincubated for 48 hrs followed by compound elution and measured after 72 hrs by Western blot analysis; assay type: functional, cell-based
[17] = system: SUD4; test: Upregulation of p27 protein level in human SU-DHL-4 cells at 5 uM preincubated for 48 hrs followed by compound elution and measured after 72 hrs by Western blot analysis; assay type: functional, cell-based

SMILES	Activity [1]	Activity [2]	further results
COc1cc(Nc2nc(N3CCN(C(=O)CCOCCNc4cccc5c4C(=O)N(C4CCC(=O)NC4=O)C5=O)CC3)ncc2F)ccc1NC(=O)c1ccc(C2=CCCC2)s1 (configuration not stated)	46.3%	55.7%	inhibition at 1 µM [3]: 47%; inhibition at 10 µM [4]: 72.9%
COc1cc(Nc2nc(N3CCN(C(=O)CCOCCOCCOCCOCCNc4cccc5c4C(=O)N(C4CCC(=O)NC4=O)C5=O)CC3)ncc2F)ccc1NC(=O)c1ccc(C2=CCCC2)s1 (configuration not stated)	–	12.2%	–
COc1cc(Nc2nc(N3CCN(C(=O)CCOCCOCCNc4cccc5c4C(=O)N(C4CCC(=O)NC4=O)C5=O)CC3)ncc2F)ccc1NC(=O)c1ccc(C2=CCCC2)s1 (configuration not stated)	48.1%	28.2%	–
COc1cc(Nc2nc(N3CCN(C(=O)CC4CCN(c5cccc6c5C(=O)N(C5CCC(=O)NC5=O)C6=O)CC4)CC3)ncc2F)ccc1NC(=O)c1ccc(C2=CCCC2)s1 (configuration not stated)	2.7%	7.1%	–
COc1cc(Nc2nc(N3CCN(C(=O)CCC4CCN(c5cccc6c5C(=O)N(C5CCC(=O)NC5=O)C6=O)CC4)CC3)ncc2F)ccc1NC(=O)c1ccc(C2=CCCC2)s1 (configuration not stated)	24.1%	23.1%	–
COc1cc(Nc2nc(N3CCN(C(=O)CCOCCNc4cc5c(cc4F)C(=O)C(C4CCC(=O)NC4=O)C5=O)CC3)ncc2F)ccc1NC(=O)c1ccc(C2=CCCC2)s1 (configuration not stated)	0%	0%	–
COc1cc(Nc2nc(N3CCN(CCOCCNc4cccc5c4CC(C4CCC(=O)NC4=O)C5=O)CC3)ncc2F)ccc1NC(=O)c1ccc(C2=CCCC2)s1 (configuration not stated)	37.1%	15.7%	–
COc1cc(Nc2nc(N3CCN(CCOCCOc4cccc5c4C(=O)C(C4CCC(=O)NC4=O)C5=O)CC3)ncc2F)ccc1NC(=O)c1ccc(C2=CCCC2)s1 (configuration not stated)	26.3%	13.5%	–
COc1cc(Nc2nc(N3CCN(CCOCCNc4cccc5c4C(=O)N(C4CCC(=O)N(C)C4=O)C5=O)CC3)ncc2F)ccc1NC(=O)c1ccc(C2=CCCC2)s1 (configuration not stated)	20.7%	11.9%	DC50 [5]: > 10 µM; IC50 [6]: > 10 µM; IC50 at 6 days [7]: > 10 µM; IC50 [8]: > 10 µM; IC50 [9]: > 10 µM; IC50 at 6 days [10]: > 10 µM; DC50 [11]: > 10 µM; Emax [12]: 11.6%; Emax [13]: 29.4%; IC50 [14]: > 10 µM
CC[C@H](C)[C@H](NC(=O)[C@H](CO)NC(=O)[C@H](CCCNC(=N)N)NC(=O)CNC(=O)[C@H](C)NC(=O)[C@H](CCC(=O)O)NC(=O)[C@H](CCCCN)NC(=O)[C@@H](NC(=O)[C@@H](NC(=O)[C@H](C)NC(=O)[C@@H](NC(=O)[C@@H](N)CC(C)C)C(C)C)[C@@H](C)O)C(C)C)C(=O)N[C@@H](Cc1cnc[nH]1)C(=O)N[C@@H](CCC(=O)O)C(=O)N[C@H](C(=O)N1CCC[C@H]1C(=O)N[C@@H](CCCNC(=N)N)C(=O)O)[C@@H](C)CC	–	–	Kd [15]: 30 µM
COc1cc(Nc2nc(N3CCN(C(=O)CCOCCNc4cccc5c4CC(C4CCC(=O)NC4=O)C5=O)CC3)ncc2F)ccc1NC(=O)c1ccc(C2=CCCC2)s1 (configuration not stated)	37%	11.1%	–
COc1cc(Nc2nc(N3CCN(C(=O)CCOCC#Cc4cccc5c4CN(C4CCC(=O)NC4=O)C5=O)CC3)ncc2F)ccc1NC(=O)c1ccc(C2=CCCC2)s1 (configuration not stated)	73.2%	27.4%	inhibition at 1 µM [3]: 5.7%; inhibition at 10 µM [4]: 98%
COc1cc(Nc2nc(N3C[C@@H](C)N[C@@H](C)C3)ncc2F)ccc1NC(=O)c1ccc(C2=CCCC2)s1	–	–	Activity [16]: inactive; Activity [17]: inactive
COc1cc(Nc2nc(N3CCN(CCOCCNc4ccc5c(c4)C(=O)C(C4CCC(=O)NC4=O)C5=O)CC3)ncc2F)ccc1NC(=O)c1ccc(C2=CCCC2)s1 (configuration not stated)	21.6%	5.2%	–
COc1cc(Nc2nc(N3CCN(C(=O)CCOCCOCCOCCNc4cccc5c4C(=O)N(C4CCC(=O)NC4=O)C5=O)CC3)ncc2F)ccc1NC(=O)c1ccc(C2=CCCC2)s1 (configuration not stated)	41.2%	34.7%	–
COc1cc(Nc2nc(N3CCN(C(=O)CCOCCNc4ccc5c(c4)C(=O)C(C4CCC(=O)NC4=O)C5=O)CC3)ncc2F)ccc1NC(=O)c1ccc(C2=CCCC2)s1 (configuration not stated)	34%	36.6%	–

More lines, main results first:

Activity [1]	Activity [2]	SMILES	further results
38.3%	35.6%	COc1cc(Nc2nc(N3CCN(CCOCCOCCNc4cccc5c4C(=O)N(C4CCC(=O)NC4=O)C5=O)CC3)ncc2F)ccc1NC(=O)c1ccc(C2=CCCC2)s1 (configuration not stated)	–
1.4%	22.7%	COc1cc(Nc2nc(N3CCN(C(=O)CCCCCCNc4cccc5c4C(=O)N(C4CCC(=O)NC4=O)C5=O)CC3)ncc2F)ccc1NC(=O)c1ccc(C2=CCCC2)s1 (configuration not stated)	–
55.8%	42.9%	COc1cc(Nc2nc(N3CCN(CCCCCCNc4cccc5c4C(=O)N(C4CCC(=O)NC4=O)C5=O)CC3)ncc2F)ccc1NC(=O)c1ccc(C2=CCCC2)s1 (configuration not stated)	–
31.7%	0.1%	COc1cc(Nc2nc(N3CCN(C(=O)CCCCNc4cccc5c4C(=O)N(C4CCC(=O)NC4=O)C5=O)CC3)ncc2F)ccc1NC(=O)c1ccc(C2=CCCC2)s1 (configuration not stated)	–
54.1%	38%	COc1cc(Nc2nc(N3CCN(C(=O)CCCCCNc4cccc5c4C(=O)N(C4CCC(=O)NC4=O)C5=O)CC3)ncc2F)ccc1NC(=O)c1ccc(C2=CCCC2)s1 (configuration not stated)	inhibition at 1 µM [3]: 31%; inhibition at 10 µM [4]: 41.3%
64%	58.4%	COc1cc(Nc2nc(N3CCN(CCCCCNc4cccc5c4C(=O)N(C4CCC(=O)NC4=O)C5=O)CC3)ncc2F)ccc1NC(=O)c1ccc(C2=CCCC2)s1 (configuration not stated)	inhibition at 1 µM [3]: 58.7%; inhibition at 10 µM [4]: 70.1%
36.3%	40.6%	COc1cc(Nc2nc(N3CCN(CCCCNc4cccc5c4C(=O)N(C4CCC(=O)NC4=O)C5=O)CC3)ncc2F)ccc1NC(=O)c1ccc(C2=CCCC2)s1 (configuration not stated)	–
